From patent US12162892B2, “CD16a binding agents and uses thereof” (KLEO PHARMACEUTICALS, INC., priority 2018, dated 2024)
Values joined by “and” are separate entries in the source; they are usually repeats but may differ in a detail not shown here. Equal entries are not always repeated.

Legend:
Type in all cases: binding
CD16a158F [1] = target: T1, CD16a158F (Homo sapiens, UniProt P08637); test: NHS-Ester ELISA Assay; parameters: purchased Acro Biosystems CDA-H82E8; conditions: NHS-Ester ligands 250 μM; 10 nM biotinylated CD16a protein
Experimental: (§1) Pretreat ELISA plates (Costar 3922) using 200 μl […] (BSA, Heat Shock, Fraction V-American Bio AB01088-00100) in PBS for 2 hours at 25° C. with moderate shaking. BSA was removed and plates were washed. NHS-Ester ligands were diluted in PBS to 250 μM then added (100 μl/well) and incubated for 1 hour at 37° C. […] Plates are removed from the incubator and washed. CD16a/Streptavidin.HRP mixture was added to the plates (100 μl/well) and incubated for 1 hour at 25° C. with gentle shaking. Wash plates. Substrate (Super Signal ELISA Pico Chemiluminescent Substrate-Thermo 37069) was added (100 μl/well) and plates were incubated for 5 minutes at 25° C. with gentle shaking. Luminescence was then measured on the Biotek Synergy H1 microplate reader.

CD16a158V [2] = test: NHS-Ester ELISA Assay; conditions: NHS-Ester ligands 250 μM; 10 nM biotinylated CD16a protein
Experimental: as §1

CD16a158V [3] = target: T2, CD16a158V (Homo sapiens, UniProt P08637, F176V); test: Biotin ELISA, interaction with various receptors (Example 55); conditions: three replicate values per compound
Experimental: (§2) Coat ELISA plates (Costar 3922) using Neutravidin (Thermo 31000) at 5 μg/ml (100 μl/well) for 1 hour at 37° C. Plates were washed 4 times with PBST (PBS, 0.05% Tween 20-200 μl, 1 minute/wash) then blocked using 200 μl 5% bovine serum albumin (BSA, Heat Shock, Fraction V-American Bio AB01088-00100) in PBST for 2 hours at 25° C. with moderate shaking. BSA was removed and plates were washed. Biotinylated ligands diluted in PBSTB (PBST+0.1% BSA) were then added (100 μl/well) and incubated for 1 hour at 25° C. with gentle shaking. Ligands were removed and plates were washed. Any remaining unoccupied neutravidin binding sites were blocked by adding 100 μM Biotin (Fisher BP232-1) (100 μl/well) and incubated for 1 hour at 25° C. with gentle shaking. Plates were then washed. […] Protein was removed and plates were washed. Streptavidin-HRP (Invitrogen 434323) diluted 1:5000 in PBSTB was added (100 μl/well) and incubated for 1 hour at 25° C. with gentle shaking. Wash plates. Substrate (Super Signal ELISA Pico Chemiluminescent Substrate-Thermo 37069) was added (100 μl/well) and plates were incubated for 5 minutes at 25° C. with gentle shaking. Luminescence was then measured on the Biotek Synergy H1 microplate reader.
(§3) Using similar methods as Examples 47 or 53, interactions with a number of receptors were measured. In some embodiments, “stock” is antibody only, and “control” is an antibody that went through the same procedure except using DMSO only as opposed to a compound. When contacted with targeting moieties such as antibodies in the Examples, compounds, e.g., I-95, I-96, etc. can react through their reactive groups

CD32b = target: T3, CD32b (Homo sapiens, UniProt P31994); test: as above; conditions: three replicate values per compound
T3 sequence (P31994 43-310): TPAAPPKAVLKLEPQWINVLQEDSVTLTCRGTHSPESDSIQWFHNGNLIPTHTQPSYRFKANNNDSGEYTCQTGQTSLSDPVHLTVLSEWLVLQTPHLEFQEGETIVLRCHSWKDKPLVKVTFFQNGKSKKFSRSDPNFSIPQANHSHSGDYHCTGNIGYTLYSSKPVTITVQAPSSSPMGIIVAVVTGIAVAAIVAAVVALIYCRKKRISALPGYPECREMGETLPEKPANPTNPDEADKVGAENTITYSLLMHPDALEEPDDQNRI
Experimental: as §2, §3

CD64 = CD64 (Homo sapiens, UniProt P12314); test: as above; conditions: three replicate values per compound
Experimental: as §2, §3

CD32a-R167 = test: as above; conditions: three replicate values per compound
Experimental: as §2, §3

CD16a158F [4] = target: T1, CD16a158F; test: as above; conditions: three replicate values per compound
Experimental: as §2, §3

CD3ed = CD3ed (Homo sapiens, UniProt P04234+P07766); test: as above; conditions: three replicate values per compound
Experimental: as §2, §3

CD32a H167 = target: T4, CD32a H167 (Homo sapiens, UniProt P12318); test: as above; conditions: three replicate values per compound
T4 sequence (P12318 36-218 limits assumed): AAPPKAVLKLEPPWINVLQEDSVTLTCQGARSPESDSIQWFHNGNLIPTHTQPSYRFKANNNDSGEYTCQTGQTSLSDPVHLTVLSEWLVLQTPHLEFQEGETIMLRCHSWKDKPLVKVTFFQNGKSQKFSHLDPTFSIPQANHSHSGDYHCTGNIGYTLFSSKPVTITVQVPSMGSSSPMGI
Experimental: as §2, §3

[5] = Biotin ELISA, No Protein (Example 55); conditions: three replicate values per compound
Experimental: as §2, §3

CD16a158V [6] = target: T2, CD16a158V; test: Biotinylated Ligand ELISA Assay; conditions: Biotinylated CD16a protein at 10 nM
Experimental: as §2

CD16a158F [7] = target: T1, CD16a158F; test: Biotinylated Ligand ELISA Assay; parameters: purchased Acro Biosystems CDA-H82E8; conditions: Biotinylated CD16a protein at 10 nM
Experimental: as §2

CD16a158V [8] = target: T2, CD16a158V; test: Microscale Thermophoresis; conditions: read-out: MST-CD16a158V KD
Experimental: Target proteins (poly-histidine tagged, 600 nM) were fluorescently labeled combination with an equal volume of dye (200 nM, His-Tag labeling kit RED-tris-NTA NanoTemper: MO-L008) PBST. The mixture rotated in the dark for 45 min before being spun down at 12000 rpm for 15 min to remove uncomplexed material. The fluorescence of the removed supernatant was adjusted to for a test concentration of 40-80 nM (2× the final measured). Test ligands were prepared across a 12-point dilution series in a 96-well PCR plate at a volume of 20 uL at 2× the concentration desired for testing (0.2% BSA in PBST). The dilution series was then combined with an equal volume of the labeled target at 2× the concentration desired for testing. Capillaries were added to the wells of the combined target/ligand complex and measured by MST. Measurements were taken using a Nanotemper Monolith NT.115, and the data was analyzed using NanoTemper MO.Control software.

T2 sequence (P08637 17-208 F176V): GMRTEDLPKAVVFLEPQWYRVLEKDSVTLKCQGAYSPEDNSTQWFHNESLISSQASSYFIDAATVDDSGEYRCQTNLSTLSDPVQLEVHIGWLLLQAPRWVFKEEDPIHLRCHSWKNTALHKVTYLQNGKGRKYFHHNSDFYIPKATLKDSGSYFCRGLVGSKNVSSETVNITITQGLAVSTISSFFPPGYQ
Sequence of CD3ed (P07766 23-126 limits assumed): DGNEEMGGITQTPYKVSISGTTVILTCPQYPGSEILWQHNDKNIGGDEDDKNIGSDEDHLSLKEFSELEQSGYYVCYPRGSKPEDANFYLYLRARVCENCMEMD
Sequence of CD3ed (P04234 22-105 limits assumed): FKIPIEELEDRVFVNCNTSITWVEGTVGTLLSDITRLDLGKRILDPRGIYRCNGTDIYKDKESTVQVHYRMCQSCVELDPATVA
T1 sequence (P08637 17-208 limits assumed): as the sequence (P08637 17-208 F176V) above, with V160F counted along it
Sequence of CD64 (P12314 16-374): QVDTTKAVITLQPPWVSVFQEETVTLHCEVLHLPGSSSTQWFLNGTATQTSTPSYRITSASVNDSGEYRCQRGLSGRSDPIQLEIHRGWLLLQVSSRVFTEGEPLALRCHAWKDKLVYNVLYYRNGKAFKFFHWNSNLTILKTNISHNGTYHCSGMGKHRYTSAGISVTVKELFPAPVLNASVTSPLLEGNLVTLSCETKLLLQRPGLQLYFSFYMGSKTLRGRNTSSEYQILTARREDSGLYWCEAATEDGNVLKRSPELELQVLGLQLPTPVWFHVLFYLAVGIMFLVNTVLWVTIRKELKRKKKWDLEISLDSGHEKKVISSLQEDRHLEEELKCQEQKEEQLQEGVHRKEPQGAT

Row | Compound | NHS ester ELISA-CD16a158F Binding (RLU) (CD16a158F [1]) | NHS ester ELISA-CD16a158V Binding (RLU) (CD16a158V [2]) | Kd (CD16a158V [8]) | also measured
1 | COc1ccc(OC)c(N2C(=O)NC3(CCN(C(=O)Nc4cccc(-c5cn(CCOCCOCCOCCOCCOCCOCCOCCOCCOCCOCCOCCOCCC(=O)ON6C(=O)CCC6=O)nn5)c4)CC3)C2=O)c1 [Compound I-1] | B (a relative luminescence value (RLU) of 10,000-100,000) | C (a relative luminescence value (RLU) of 1,000-10,000) | – | –
2 | O=C(CCOCCOCCOCCOCCOCCOCCOCCOCCOCCOCCOCCOCCn1cc(-c2ccc(NC(=O)N3CCC4(CC3)NC(=O)N(Cc3ccccc3)C4=O)cc2)nn1)ON1C(=O)CCC1=O [Compound I-2] | B (a relative luminescence value (RLU) of 10,000-100,000) | C (a relative luminescence value (RLU) of 1,000-10,000) | – | –
3 | O=C(CCOCCOCCOCCOCCOCCOCCOCCOCCOCCOCCOCCOCCn1cc(-c2cccc(-c3cnc(N4CCC5(CC4)NC(=O)N(Cc4ccccc4)C5=O)nc3)c2)nn1)ON1C(=O)CCC1=O [Compound I-6] | B (a relative luminescence value (RLU) of 10,000-100,000) | B (a relative luminescence value (RLU) of 10,000-100,000) | – | –
4 | O=C(CCOCCOCCOCCOCCOCCOCCOCCOCCOCCOCCOCCOCCn1cc(-c2cnc(N3CCC4(CC3)NC(=O)N(Cc3ccccc3)C4=O)nc2)nn1)ON1C(=O)CCC1=O [Compound I-7] | C (a relative luminescence value (RLU) of 1,000-10,000) | B (a relative luminescence value (RLU) of 10,000-100,000) | – | –
5 | O=C(CCOCCOCCOCCOCCOCCOCCOCCOCCOCCOCCOCCOCCNC(=O)c1cnc(N2CCC3(CC2)NC(=O)N(Cc2ccccc2)C3=O)nc1)ON1C(=O)CCC1=O [Compound I-8] | C (a relative luminescence value (RLU) of 1,000-10,000) | B (a relative luminescence value (RLU) of 10,000-100,000) | – | –
6 | O=C(CCOCCOCCOCCOCCOCCOCCOCCOCCOCCOCCOCCOCCn1cc(-c2cccc(NC(=O)N3CCC4(CC3)NC(=O)N(c3ccccc3)C4=O)c2)nn1)ON1C(=O)CCC1=O [Compound I-9] | B (a relative luminescence value (RLU) of 10,000-100,000) | B (a relative luminescence value (RLU) of 10,000-100,000) | – | –
7 | O=C(CCCC[C@@H]1SC[C@@H]2NC(=O)N[C@@H]21)NCCOCCOCCOCCOCCOCCOCCOCCOCCNC(=O)c1cnc(N2CCC3(CC2)NC(=O)N(c2ccccc2)C3=O)s1 [Compound I-13, 5-[(3aS,4S,6aR)-2-oxo-hexahydro-1H-thieno[3,4-d]imidazol-4-yl]-N-{26-[(2-{2,4-dioxo-3-phenyl-1,3,8-triazaspiro[4.5]decan-8-yl}-1,3-thiazol-5-yl)formamido]-3,6,9,12,15,18,21,24-octaoxahexacosan-1-yl}pentanamide] | – | – | – | Biotin ELISA Results CD16a-158V (CD16a158V [3]): 4673 and 4920 and 4565; Biotin ELISA Results CD32b (CD32b): 7721 and 7105 and 9481; Biotin ELISA Results CD64 (CD64): 45845 and 36876 and 49943; Biotin ELISA Results CD32a-R167 (CD32a-R167): 8032 and 6483 and 10638; Biotin ELISA Results CD16a-158F (CD16a158F [4]): 10817 and 15276 and 9605; Biotin ELISA Results CD3ed (CD3ed): 4252 and 15476 and 72836*; Biotin ELISA Results CD32a-H167 (CD32a H167): 15516 and 14898 and 8681; Biotin ELISA Results No Protein [5]: 6804 and 19233 and 14386
8 | O=C(CCCC[C@@H]1SC[C@@H]2NC(=O)N[C@@H]21)NCCOCCOCCOCCOCCOCCOCCOCCOCCNC(=O)c1ccc(S(=O)(=O)N2CCC3(CC2)NC(=O)N(c2ccccc2)C3=O)cc1 [Compound I-22] | – | – | – | Biotinylated Ligand ELISA-CD16a158V Binding (RLU) (CD16a158V [6]): B (a relative luminescence value (RLU) of 10,000-100,000); Biotinylated Ligand ELISA-CD16a158F Binding (RLU) (CD16a158F [7]): B (a relative luminescence value (RLU) of 10,000-100,000)
9 | COc1ccc(OC)c(N2CC(C(=O)Nc3ccc(-c4cn(CCOCCOCCOCCOCCOCCOCCOCCOCCOCCOCCOCCOCCC(=O)ON5C(=O)CCC5=O)nn4)cc3)CC2=O)c1 (stereo not drawn) [Compound I-25] | C (a relative luminescence value (RLU) of 1,000-10,000) | C (a relative luminescence value (RLU) of 1,000-10,000) | – | –
10 | COc1ccc(OC)c(N2CC(C(=O)Nc3ccc(-c4cn(CCOCCOCCOCCOCCOCCOCCOCCOCCC(=O)ON5C(=O)CCC5=O)nn4)cc3)CC2=O)c1 (stereo not drawn) [Compound I-26] | C (a relative luminescence value (RLU) of 1,000-10,000) | C (a relative luminescence value (RLU) of 1,000-10,000) | – | –
11 | COc1ccc(N2CC(C(=O)Nc3ccc(-c4cn(CCOCCOCCOCCOCCOCCOCCOCCOCCNC(=O)CCCC[C@@H]5SC[C@@H]6NC(=O)N[C@@H]65)nn4)cc3)CC2=O)cc1 (stereo partly drawn) [Compound I-33] | – | – | 100 to 500 nM | –
12 | COc1cccc(N2CC(C(=O)Nc3ccc(-c4cn(CCOCCOCCOCCOCCOCCOCCOCCOCCNC(=O)CCCC[C@@H]5SC[C@@H]6NC(=O)N[C@@H]65)nn4)cc3)CC2=O)c1 (stereo partly drawn) [Compound I-34] | – | – | 100 to 500 nM | –
13 | COc1ccccc1N1CC(C(=O)Nc2ccc(-c3cn(CCOCCOCCOCCOCCOCCOCCOCCOCCNC(=O)CCCC[C@@H]4SC[C@@H]5NC(=O)N[C@@H]54)nn3)cc2)CC1=O (stereo partly drawn) [Compound I-35] | – | – | 100 to 500 nM | –
14 | CCOc1ccc(N2CC(C(=O)N3CCC(C(=O)NCCOCCOCCOCCOCCOCCOCCOCCOCCNC(=O)CCCC[C@@H]4SC[C@@H]5NC(=O)N[C@@H]54)CC3)CC2=O)cc1 (stereo partly drawn) [Compound I-37] | – | – | 500 to 1000 nM | –
15 | COc1ccc(OC)c(N2CC(C(=O)Nc3ccc(Cn4cnc(CCOCCOCCOCCOCCOCCOCCOCCOCCNC(=O)CCCC[C@@H]5SC[C@@H]6NC(=O)N[C@@H]65)n4)cc3)CC2=O)c1 (stereo partly drawn) [Compound I-38] | – | – | 100 to 500 nM | –
16 | COc1ccc(OC)c(N2CC(C(=O)Nc3cccc(-c4cn(CCOCCOCCOCCOCCOCCOCCOCCOCCNC(=O)CCCC[C@@H]5SC[C@@H]6NC(=O)N[C@@H]65)nn4)c3)CC2=O)c1 (stereo partly drawn) [Compound I-40] | – | – | 100 to 500 nM | –
17 | COc1ccc(OC)c(N2CC(C(=O)Nc3ccc(CC4N=NC(COCCOCCOCCOCCOCCOCCOCCOCCNC(=O)CCCC[C@@H]5SC[C@@H]6NC(=O)N[C@@H]65)=N4)cc3)CC2=O)c1 (stereo partly drawn) [Compound I-41] | – | – | 500 to 1000 nM | –
